Test results reported in patent US12702691B2, “Extract of an herbal composition as antimicrobial and/or antibiofilm agent” (ALPHANOSOS S.A.S., priority 2016, dated 2026).

Tests used:
[1] = tested on: B-A21; experiment: Planktonic growth with extract and antibiotic relative to growth without both (Example 14); type: cell-based
Protocol: (§1) Starting from the herbal composition, the corresponding water extracts (or processed samples) was prepared according to the previously described Method B using 2.06 g of the above herbal composition with 40 mL water with 100 g/L sucrose for water extraction and including the decantation step before filtration. In an independent water extract preparation without sucrose, it has been measured that 2.06 g/40 mL of herbal composition corresponds to 14.5 g/L as deduced from the weight of the lyophilized dry herbal extract.
(§2) In Example 14 we calculate the growth of the bacteria in presence of antibiotic and/or herbal mix relative to the growth in the absence of both antibiotic and herbal mix extract.

[2] = tested on: B-A17; experiment: as above; type: cell-based
Protocol: as §1, §2

[3] = M[20C]-576 0 μg/mL, antibiotic 3.91 μg/mL
[4] = M[20C]-576 0 μg/mL, antibiotic 7.81 μg/mL
[5] = M[20C]-576 0 μg/mL, antibiotic 15.63 μg/mL
[6] = M[20C]-576 0 μg/mL, antibiotic 31.25 μg/mL
[7] = M[20C]-576 0 μg/mL, antibiotic 62.50 μg/mL
[8] = M[20C]-576 0 μg/mL, antibiotic 125 μg/mL
[9] = M[20C]-576 0 μg/mL, antibiotic 250 μg/mL
[10] = M[20C]-576 0 μg/mL, antibiotic 500 μg/mL
[11] = M[20C]-576 0 μg/mL, antibiotic 1000 μg/mL
[12] = M[20C]-576 0 μg/mL, antibiotic 2000 μg/mL
[13] = M[20C]-576 0 μg/mL, antibiotic 4000 μg/mL
[14] = M[20C]-576 90.6 μg/mL, antibiotic 3.91 μg/mL
[15] = M[20C]-576 90.6 μg/mL, antibiotic 7.81 μg/mL
[16] = M[20C]-576 90.6 μg/mL, antibiotic 15.63 μg/mL
[17] = M[20C]-576 90.6 μg/mL, antibiotic 31.25 μg/mL
[18] = M[20C]-576 90.6 μg/mL, antibiotic 62.50 μg/mL
[19] = M[20C]-576 90.6 μg/mL, antibiotic 125 μg/mL
[20] = M[20C]-576 90.6 μg/mL, antibiotic 250 μg/mL
[21] = M[20C]-576 90.6 μg/mL, antibiotic 500 μg/mL
[22] = M[20C]-576 90.6 μg/mL, antibiotic 1000 μg/mL
[23] = M[20C]-576 90.6 μg/mL, antibiotic 2000 μg/mL
[24] = M[20C]-576 90.6 μg/mL, antibiotic 4000 μg/mL
[25] = M[20C]-576 181.3 μg/mL, antibiotic 3.91 μg/mL
[26] = M[20C]-576 181.3 μg/mL, antibiotic 7.81 μg/mL
[27] = M[20C]-576 181.3 μg/mL, antibiotic 15.63 μg/mL
[28] = M[20C]-576 181.3 μg/mL, antibiotic 31.25 μg/mL
[29] = M[20C]-576 181.3 μg/mL, antibiotic 62.50 μg/mL
[30] = M[20C]-576 181.3 μg/mL, antibiotic 125 μg/mL
[31] = M[20C]-576 181.3 μg/mL, antibiotic 250 μg/mL
[32] = M[20C]-576 181.3 μg/mL, antibiotic 500 μg/mL
[33] = M[20C]-576 181.3 μg/mL, antibiotic 1000 μg/mL
[34] = M[20C]-576 181.3 μg/mL, antibiotic 2000 μg/mL
[35] = M[20C]-576 181.3 μg/mL, antibiotic 4000 μg/mL

Q: Which results are given for Penicillin?
A: planktonic growth relative to the growth in the absence of both extract and antibiotic [1, 3]: 135%; planktonic growth relative to the growth in the absence of both extract and antibiotic [1, 4]: 116%; planktonic growth relative to the growth in the absence of both extract and antibiotic [1, 5]: 115%; planktonic growth relative to the growth in the absence of both extract and antibiotic [1, 6]: 113%; planktonic growth relative to the growth in the absence of both extract and antibiotic [1, 7]: 108%; planktonic growth relative to the growth in the absence of both extract and antibiotic [1, 8]: 106%; planktonic growth relative to the growth in the absence of both extract and antibiotic [1, 9]: 101%; planktonic growth relative to the growth in the absence of both extract and antibiotic [1, 10]: 0%; planktonic growth relative to the growth in the absence of both extract and antibiotic [1, 11]: 0%; planktonic growth relative to the growth in the absence of both extract and antibiotic [1, 12]: 0%; planktonic growth relative to the growth in the absence of both extract and antibiotic [1, 13]: 0%; planktonic growth relative to the growth in the absence of both extract and antibiotic [1, 14]: 104%; planktonic growth relative to the growth in the absence of both extract and antibiotic [1, 15]: 83%; planktonic growth relative to the growth in the absence of both extract and antibiotic [1, 16]: 83%; planktonic growth relative to the growth in the absence of both extract and antibiotic [1, 17]: 84%; planktonic growth relative to the growth in the absence of both extract and antibiotic [1, 18]: 80%; planktonic growth relative to the growth in the absence of both extract and antibiotic [1, 19]: 74%; planktonic growth relative to the growth in the absence of both extract and antibiotic [1, 20]: 26%; planktonic growth relative to the growth in the absence of both extract and antibiotic [1, 21]: 0%; planktonic growth relative to the growth in the absence of both extract and antibiotic [1, 22]: 0%; planktonic growth relative to the growth in the absence of both extract and antibiotic [1, 23]: 0%; planktonic growth relative to the growth in the absence of both extract and antibiotic [1, 24]: 0%; planktonic growth relative to the growth in the absence of both extract and antibiotic [1, 25]: 62%; planktonic growth relative to the growth in the absence of both extract and antibiotic [1, 26]: 43%; planktonic growth relative to the growth in the absence of both extract and antibiotic [1, 27]: 70%; planktonic growth relative to the growth in the absence of both extract and antibiotic [1, 28]: 61%; planktonic growth relative to the growth in the absence of both extract and antibiotic [1, 29]: 60%; planktonic growth relative to the growth in the absence of both extract and antibiotic [1, 30]: 45%; planktonic growth relative to the growth in the absence of both extract and antibiotic [1, 31]: −3%; planktonic growth relative to the growth in the absence of both extract and antibiotic [1, 32]: −3%; planktonic growth relative to the growth in the absence of both extract and antibiotic [1, 33]: −3%; planktonic growth relative to the growth in the absence of both extract and antibiotic [1, 34]: −3%; planktonic growth relative to the growth in the absence of both extract and antibiotic [1, 35]: −3%; planktonic growth relative to the growth in the absence of both extract and antibiotic [2, 3]: 137%; planktonic growth relative to the growth in the absence of both extract and antibiotic [2, 4]: 138%; planktonic growth relative to the growth in the absence of both extract and antibiotic [2, 5]: 3%; planktonic growth relative to the growth in the absence of both extract and antibiotic [2, 6]: 1%; planktonic growth relative to the growth in the absence of both extract and antibiotic [2, 7]: 0%; planktonic growth relative to the growth in the absence of both extract and antibiotic [2, 8]: −1%; planktonic growth relative to the growth in the absence of both extract and antibiotic [2, 9]: 0%; planktonic growth relative to the growth in the absence of both extract and antibiotic [2, 10]: 0%; planktonic growth relative to the growth in the absence of both extract and antibiotic [2, 11]: 0%; planktonic growth relative to the growth in the absence of both extract and antibiotic [2, 12]: 0%; planktonic growth relative to the growth in the absence of both extract and antibiotic [2, 13]: 0%; planktonic growth relative to the growth in the absence of both extract and antibiotic [2, 14]: 39%; planktonic growth relative to the growth in the absence of both extract and antibiotic [2, 15]: 25%; planktonic growth relative to the growth in the absence of both extract and antibiotic [2, 16]: 1%; planktonic growth relative to the growth in the absence of both extract and antibiotic [2, 17]: 0%; planktonic growth relative to the growth in the absence of both extract and antibiotic [2, 18]: 0%; planktonic growth relative to the growth in the absence of both extract and antibiotic [2, 19]: 0%; planktonic growth relative to the growth in the absence of both extract and antibiotic [2, 20]: 0%; planktonic growth relative to the growth in the absence of both extract and antibiotic [2, 21]: 0%; planktonic growth relative to the growth in the absence of both extract and antibiotic [2, 22]: 0%; planktonic growth relative to the growth in the absence of both extract and antibiotic [2, 23]: 0%; planktonic growth relative to the growth in the absence of both extract and antibiotic [2, 24]: 0%; planktonic growth relative to the growth in the absence of both extract and antibiotic [2, 25]: 23%; planktonic growth relative to the growth in the absence of both extract and antibiotic [2, 26]: 5%; planktonic growth relative to the growth in the absence of both extract and antibiotic [2, 27]: −3%; planktonic growth relative to the growth in the absence of both extract and antibiotic [2, 28]: −3%; planktonic growth relative to the growth in the absence of both extract and antibiotic [2, 29]: −3%; planktonic growth relative to the growth in the absence of both extract and antibiotic [2, 30]: −3%; planktonic growth relative to the growth in the absence of both extract and antibiotic [2, 31]: −2%; planktonic growth relative to the growth in the absence of both extract and antibiotic [2, 32]: −3%; planktonic growth relative to the growth in the absence of both extract and antibiotic [2, 33]: −4%; planktonic growth relative to the growth in the absence of both extract and antibiotic [2, 34]: −4%; planktonic growth relative to the growth in the absence of both extract and antibiotic [2, 35]: −2%
